Assay results taken from patent US11945794B2, “Nuclear transport modulators and uses thereof” (Karyopharm Therapeutics Inc., priority 2013, dated 2024).

What was measured:
Test in all cases: MTT assay panel
Type in all cases: cell-based
SHP-77 = conditions: Homo sapiens, SHP77; SHP-77 cells, 72 hours
Procedure: (§1) Compound 124 was further tested against a panel of selected solid and hematological cancer cell lines and selected normal cell lines in an MTT assay. Briefly, the various cell lines above were plated at different densities on day 1. […] Cell Titer AQueous One was added to each well, and the plates were read in a plate reader at OD 495.

NCI-H226 = conditions: Homo sapiens; NCI-H226 cells, 72 hours
Procedure: as §1

Calu-3 = conditions: Homo sapiens; Calu-3 cells, 72 hours
Procedure: as §1

MDA-MB-361 = conditions: Homo sapiens; MDA-MB-361 cells, 72 hours
Procedure: as §1

NCI-H187 = conditions: Homo sapiens; NCI-H187 cells, 72 hours
Procedure: as §1

PATU-8988S = PATU-8988S cells, 72 hours
Procedure: as §1

PL-45 = conditions: PL45; PL-45 cells, 72 hours
Procedure: as §1

CAPAN-1 = conditions: Homo sapiens; CAPAN-1 cells, 72 hours
Procedure: as §1

LS-180 = conditions: Homo sapiens, LS180; LS-180 cells, 72 hours
Procedure: as §1

HCT116 = conditions: Homo sapiens, HCT-116; HCT116 cells, 72 hours
Procedure: as §1

DLD-1 = conditions: Homo sapiens; DLD-1 cells, 72 hours
Procedure: as §1

SW-948 = conditions: Homo sapiens, SW948; SW-948 cells, 72 hours
Procedure: as §1

SW-403 = conditions: Homo sapiens; SW-403 cells, 72 hours
Procedure: as §1

MO7e = MO7e cells, 72 hours
Procedure: as §1

RL = conditions: Homo sapiens; RL cells, 72 hours
Procedure: as §1

MINO = conditions: Homo sapiens; MINO cells, 72 hours
Procedure: as §1

MDA-MB-231 = conditions: Homo sapiens; MDA-MB-231 cells, 72 hours
Procedure: as §1

Toledo = conditions: Homo sapiens; Toledo cells, 72 hours
Procedure: as §1

NCI-H747 = conditions: Homo sapiens; NCI-H747 cells, 72 hours
Procedure: as §1

BL-40 = BL-40 cells, 72 hours
Procedure: as §1

MCF7 = conditions: Homo sapiens; MCF7 cells, 72 hours
Procedure: as §1

HS-Sultan = HS-Sultan cells, 72 hours
Procedure: as §1

U118MG = conditions: Homo sapiens, U-118-MG; U118MG cells, 72 hours
Procedure: as §1

AML-193 = AML-193 cells, 72 hours
Procedure: as §1

HEL.92.1.7 = conditions: Homo sapiens; HEL.92.1.7 cells, 72 hours
Procedure: as §1

MOLT4 = conditions: Homo sapiens, MOLT-4; MOLT4 cells, 72 hours
Procedure: as §1

SW-1417 = conditions: Homo sapiens, SW1417; SW-1417 cells, 72 hours
Procedure: as §1

SW-620 = conditions: Homo sapiens; SW-620 cells, 72 hours
Procedure: as §1

Calu-6 = conditions: Homo sapiens; Calu-6 cells, 72 hours
Procedure: as §1

ANBL-6 = conditions: Homo sapiens; ANBL-6 cells, 72 hours
Procedure: as §1

Colo-205 = conditions: Homo sapiens; Colo-205 cells, 72 hours
Procedure: as §1

HCC-827 = conditions: Homo sapiens, HCC827; HCC-827 cells, 72 hours
Procedure: as §1

IC50 (NCI-H226): 30 nM | IC50 (Calu-3): 1380 nM | IC50 (MDA-MB-361): > 10000 nM | IC50 (NCI-H187): 530 nM | IC50 (HCT116): 110 nM | IC50 (DLD-1): 800 nM | IC50 (SW-948): > 10000 nM | IC50 (SW-403): 910 nM | IC50 (MDA-MB-231): 120 nM | IC50 (NCI-H747): 70 nM | IC50 (MCF7): 680 nM | IC50 (MOLT4): 10 nM | IC50 (SW-1417): > 10000 nM | IC50 (SW-620): 420 nM | IC50 (Calu-6): 1270 nM | IC50 (Colo-205): 120 nM | IC50 (HCC-827): 460 nM
SMILES: NC(=O)/C(=C/n1cnc(-c2cc(C(F)(F)F)cc(C(F)(F)F)c2)n1)c1cncnc1 [Compound 124, (E)-3-(3-(3,5-bis(trifluoromethyl)phenyl)-1H-1,2,4-triazol-1-yl)-2-(pyrimidin-5-yl)acrylamide]
IC50 (SHP-77): 410 nM | IC50 (PATU-8988S): 10000 nM | IC50 (PL-45): 6940 nM | IC50 (CAPAN-1): 20 nM | IC50 (LS-180): > 10000 nM | IC50 (MO7e): 20 nM | IC50 (RL): 20 nM | IC50 (MINO): 20 nM | IC50 (Toledo): 70 nM | IC50 (BL-40): 400 nM | IC50 (HS-Sultan): 60 nM | IC50 (U118MG): 370 nM | IC50 (AML-193): 1930 nM | IC50 (HEL.92.1.7): 230 nM | IC50 (ANBL-6): 220 nM
